Source: patent US9897613B2, “Mass spectrometric measurement of microbial resistances” (Bruker Daltonik GmbH, priority 2007, dated 2018)

Assays:
[1] = test system: E. coli with a resistance to ampicillin due to a plasmid pUC19; experiment: Mass spectrometric (MALDI) protein profile after incubation with antibiotic in liquid nutrient medium, resistant strain; assay type: cell-based, Escherichia coli; details: ampicillin in a liquid nutrient medium allowed to act for two hours, FIG. 2 bottom
Description: The mass spectra contain predominantly protein signals of the same mass, with the usual lack of reproducibility of the intensities. They are identified as being identical by suitable computer programs.
(§1) The non-resistant type of E. coli (top) has been destroyed; all protein signals of the mass spectra from FIG. 1 have disappeared.
(§2) The illustrative method starts in step 300 and comprises the following steps: • (a) In step 302, a quantity of microbes under investigation is added to a nutrient medium which also contains a quantity of the antibiotic, • (b) Next, in step 304, the microbes are incubated at a predetermined temperature for a predetermined length of time, preferably not longer than a few hours, • (c) In step 306, the microbes are then removed from the nutrient medium by a suitable means, such as centrifuging, • (d) The microbes are then applied, in step 308, together with a matrix solution to a mass spectrometric sample support and the matrix solution is dried on the sample support to form a sample, • (e) In step 310, a mass spectrum of this sample is acquired, and • (f) Then, in step 312, the acquired mass spectrum is compared with reference mass spectra of these microbes. The process then finishes in step 314.
Infectious microbes are incubated for about two hours at temperatures of between 35° C. and 40° C. in the presence of the antibiotics. […]

[2] = test system: non-resistant type of E. coli; experiment: Mass spectrometric (MALDI) protein profile after incubation with antibiotic in liquid nutrient medium, non-resistant strain; assay type: cell-based, Escherichia coli; details: ampicillin in a liquid nutrient medium allowed to act for two hours, FIG. 2 top
Description: as §1, §2
Infectious microbes are incubated for about two hours at temperatures of between 35° C. and 40° C. in the presence of the antibiotics. This temperature is the optimum one for most infectious microbes because they are generally adapted to a life in mammals. […]

Question: Which “effect on microbes / protein profile of the mass spectrum” value [1] does the source give for `CC1(C)S[C@@H]2[C@H](NC(=O)[C@H](N)c3ccccc3)C(=O)N2[C@H]1C(=O)O` [ampicillin] here?
Answer: protein profile which is sufficiently similar to the two mass spectra in FIG. 1

Question: And the “effect on microbes / protein signals of the mass spectrum” value [2]?
Answer: destroyed
